In US9862717B2 (Merck Patent GmbH, priority 2014, dated 2018) one finds IC50 data, which are given here for 27 compounds.

Read-outs that look alike come from different tables or passages of the source. A value given as a limit tells only on which side of the number the result lay.

In the test the target is T1, CDK8/CycC (Homo sapiens, UniProt P49336).
T1 construct: purchased Invitrogen PV4402
Nature of the test: FRET based Lanthascreen binding competition assay for CDK8 inhibitory activity. Particulars: CDK8 co-expressed with CycC, class symbols. An excerpt:
Biochemical Assay for CDK8 Inhibitory Activity FRET based Lanthascreen binding competition assay: A dye-labeled ATP competitive probe served as a FRET acceptor upon binding to CDK8 labeled with a strepavidin -Eu-chelate (via a biotinylated anti His antibody). The result was a fluorescence signal at 647 nm. In case this probe was competed by an inhibitor, such a signal cannot be generated any more. The CDK8 used for this assay was a protein co-expressed with CycC. The assay procedure for an assay in a 1536 well plate was performed according to the following: 2 μL CDK8/biotin-anti-His Ab/SA-Eu mix in Assay buffer were pipetted into the wells of a micro plate. 1 μL compound in 20 mM Hepes buffer/5% DMSO was added. The plate was shaken for 30 sec and incubated for 20 min at RT. 2 μL Alexa647-probe in assay buffer were added. The plate was shaken for 30 sec again and incubated for 60 min at RT in the dark. Then the plate was read out on a Perkin Elmer Envision (mode LANCE/TRF, excitation 340 nm emission 650 nm). […] The readouts were fitted to IC50 curves using Genedata Condoseo.

T1 sequence (P49336 whole entry): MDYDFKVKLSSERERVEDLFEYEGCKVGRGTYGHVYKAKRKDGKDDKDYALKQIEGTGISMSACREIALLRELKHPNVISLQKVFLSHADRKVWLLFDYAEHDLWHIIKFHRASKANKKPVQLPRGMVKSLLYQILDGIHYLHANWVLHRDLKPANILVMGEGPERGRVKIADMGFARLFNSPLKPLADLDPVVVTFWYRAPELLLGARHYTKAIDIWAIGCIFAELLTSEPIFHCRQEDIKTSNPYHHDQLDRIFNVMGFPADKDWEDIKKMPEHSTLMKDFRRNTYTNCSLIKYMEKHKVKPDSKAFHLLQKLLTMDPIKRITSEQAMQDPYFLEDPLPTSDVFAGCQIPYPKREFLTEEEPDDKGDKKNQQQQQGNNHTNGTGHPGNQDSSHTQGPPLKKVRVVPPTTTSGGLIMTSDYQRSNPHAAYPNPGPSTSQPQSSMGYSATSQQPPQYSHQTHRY
T1 sequence (P24863 whole entry partner): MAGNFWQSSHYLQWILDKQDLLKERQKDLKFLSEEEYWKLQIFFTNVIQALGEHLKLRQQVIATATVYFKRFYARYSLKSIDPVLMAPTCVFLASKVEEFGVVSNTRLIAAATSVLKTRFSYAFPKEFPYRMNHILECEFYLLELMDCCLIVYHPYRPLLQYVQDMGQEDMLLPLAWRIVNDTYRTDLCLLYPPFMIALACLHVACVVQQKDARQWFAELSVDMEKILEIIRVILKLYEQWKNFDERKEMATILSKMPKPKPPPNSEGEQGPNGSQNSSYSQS

Turning to `CCCc1n[nH]c2ccc(C(=O)N3CCCC3c3ccc(Br)cc3)cc12` (racemic) [compound 4, [2-(4-Bromo-phenyl)-pyrrolidin-1-yl]-(3-propyl-1H-indazol-5-yl)-methanone], the half-inhibitory concentration (IC50) (read-out: IC50) was below 0.01 µM. As to `Cc1n[nH]c2ncc(C(=O)N3CCCC3c3ccc(Cl)cc3)cc12` (racemic) [compound 10, [2-(4-Chloro-phenyl)-pyrrolidin-1-yl]-(3-methyl-1H-pyrazolo[3,4-b]pyridin-5-yl)-methanone], the concentration for half-maximal inhibition (IC50) (IC50 [μM]) is below 0.01 µM. The same measure, in the same setting: the figure for `Nc1n[nH]c2ccc(C(=O)N3CCCC3c3ccc(Cl)cc3)cc12` (racemic) [compound 78, (3-Amino-1H-indazol-5-yl)-[2-(4-chloro-phenyl)-pyrrolidin-1-yl]-methanone] is below 0.01 µM. As to `O=C(c1ccc2[nH]ncc2c1)N1CCCC1c1ccc(Br)cc1` (racemic) [compound 154], the IC50 (read-out: IC50) was in the range of 0.01 to 0.1 µM. On the same count and under the same terms, next, `O=C(c1cnc2[nH]nc(C(F)(F)F)c2c1)N1CCCC1c1ccc(Cl)cc1` (racemic) [compound 177, [2-(4-Chloro-phenyl)-pyrrolidin-1-yl]-(3-trifluoromethyl-1H-pyrazolo[3,4-b]pyridin-5-yl)-methanone]: 0.01 to 0.1 µM; `CC(C)c1ccc(C2CCCN2C(=O)c2ccc3[nH]nc(N)c3c2)cc1` (racemic) [compound 191, (3-Amino-1H-indazol-5-yl)-[2-(4-isopropyl-phenyl)-pyrrolidin-1-yl]-methanone]: 0.01 to 0.1 µM; `Cc1n[nH]c2ncc(C(=O)N3CCCC3c3ccc(C(C)C)cc3)cc12` (racemic) [compound 192, [2-(4-Isopropyl-phenyl)-pyrrolidin-1-yl]-(3-methyl-1H-pyrazolo[3,4-b]pyridin-5-yl)-methanone]: below 0.01 µM. The same measure, in the same setting: next, `Cc1n[nH]c2ncc(C(=O)N3CCC(O)(c4ccccc4)C3)cc12` (racemic) [compound 193, (3-Hydroxy-3-phenyl-pyrrolidin-1-yl)-(3-methyl-1H-pyrazolo[3,4-b]pyridin-5-yl)-methanone]: 1 to 10 µM. On to `CC(=O)N[C@@H]1CN(C(=O)c2ccc3[nH]nc(N)c3c2)C[C@H]1c1ccc(Cl)cc1` (racemic) [compound 263, N-[(3S,4R)-1-(3-Amino-1H-indazole-5-carbonyl)-4-(4-chloro-phenyl)-pyrrolidin-3-yl]-acetamide (racemic)], for which the IC50 (read-out: IC50) was in the range of 0.01 to 0.1 µM. On the same count and under the same terms, next, `CC(=O)N[C@@H]1CN(C(=O)c2cnc3[nH]nc(C)c3c2)C[C@H]1c1ccc(Cl)cc1` (racemic) [compound 264, N-[(3S,4R)-4-(4-Chloro-phenyl)-1-(3-methyl-1H-pyrazolo[3,4-b]pyridine-5-carbonyl)-pyrrolidin-3-yl]-acetamide (racemic)]: 0.01 to 0.1 µM; `Nc1n[nH]c2ccc(C(=O)N3CCCCC3Cc3ccccc3)cc12` (stereo in doubt) [compound 86, (3-Amino-1H-indazol-5-yl)-((S)-2-benzyl-piperidin-1-yl)-methanone]: 0.01 to 0.1 µM; `Nc1n[nH]c2ccc(C(=O)N3CCCCC3Cc3ccccc3)cc12` (stereo in doubt) [compound 89, (3-Amino-1H-indazol-5-yl)-((R)-2-benzyl-piperidin-1-yl)-methanone]: 0.1 to 1 µM. As for `Cc1n[nH]c2ncc(C(=O)N3CC[C@H](C)C3c3ccc(C(F)(F)F)cc3)cc12` (stereo in doubt) [compound 171, (3-Methyl-1H-pyrazolo[3,4-b]pyridin-5-yl)-[(2S,3S)-3-methyl-2-(4-trifluoromethyl-phenyl)-pyrrolidin-1-yl]-methanone], the IC50 (read-out: IC50) lay within 0.01 to 0.1 µM. Same read-out and setting: next, `O=C(c1cnc2[nH]nc(C(F)(F)F)c2c1)N1CCC[C@H]1c1ccc(Cl)cc1` (stereo in doubt) [compound 180, [(S)-2-(4-Chloro-phenyl)-pyrrolidin-1-yl]-(3-trifluoromethyl-1H-pyrazolo[3,4-b]pyridin-5-yl)-methanone]: below 0.01 µM; `O=C(c1cnc2[nH]nc(C(F)(F)F)c2c1)N1CCC[C@@H]1c1ccc(Cl)cc1` (stereo in doubt) [compound 181, [(R)-2-(4-Chloro-phenyl)-pyrrolidin-1-yl]-(3-trifluoromethyl-1H-pyrazolo[3,4-b]pyridin-5-yl)-methanone]: 0.1 to 1 µM; `Cc1n[nH]c2ncc(C(=O)N3CCC(O)(c4ccccc4)C3)cc12` (stereo in doubt) [compound 199, ((R)-3-Hydroxy-3-phenyl-pyrrolidin-1-yl)-(3-methyl-1H-pyrazolo[3,4-b]pyridin-5-yl)-methanone]: 1 to 10 µM. The same measure, in the same setting: the figure for `Cc1n[nH]c2ncc(C(=O)N3CCCC3c3ccc(Br)cc3)cc12` (stereo not drawn) [compound 1, [2-(4-Bromo-phenyl)-pyrrolidin-1-yl]-(3-methyl-1H-pyrazolo[3,4-b]pyridin-5-yl)-methanone] is below 0.01 µM; for `Cc1n[nH]c2ncc(C(=O)N3CCC[C@H]3c3ccc(Br)cc3)cc12` [compound 2, [(S)-2-(4-Bromo-phenyl)-pyrrolidin-1-yl]-(3-methyl-1H-pyrazolo[3,4-b]pyridin-5-yl)-methanone] it is below 0.01 µM. The same measure, in the same setting: next, `Cc1n[nH]c2ncc(C(=O)N3CCC[C@@H]3c3ccc(Br)cc3)cc12` [compound 3, [(R)-2-(4-Bromo-phenyl)-pyrrolidin-1-yl]-(3-methyl-1H-pyrazolo[3,4-b]pyridin-5-yl)-methanone]: 0.1 to 1 µM; `CCCc1n[nH]c2ccc(C(=O)N3CCC[C@H]3c3ccc(Br)cc3)cc12` [compound 5, [(S)-2-(4-Bromo-phenyl)-pyrrolidin-1-yl]-(3-propyl-1H-indazol-5-yl)-methanone]: below 0.01 µM; `CCCc1n[nH]c2ccc(C(=O)N3CCC[C@@H]3c3ccc(Br)cc3)cc12` [compound 6, [(R)-2-(4-bromo-phenyl)-pyrrolidin-1-yl]-(3-propyl-1H-indazol-5-yl)-methanone]: 0.1 to 1 µM. Turning to `CCCc1n[nH]c2ccc(C(=O)N3CCCC3c3ccc(Cl)cc3)cc12` (stereo not drawn) [compound 9, [2-(4-Chloro-phenyl)-pyrrolidin-1-yl]-(3-propyl-1H-indazol-5-yl)-methanone], the concentration for half-maximal inhibition (IC50) (read-out: IC50) was below 0.01 µM. The same measure, in the same setting: the figure for `CCCc1n[nH]c2ccc(C(=O)N3CCC[C@H]3c3ccc(Cl)cc3)cc12` [compound 11, [(S)-2-(4-Chloro-phenyl)-pyrrolidin-1-yl]-(3-propyl-1H-indazol-5-yl)-methanone] is below 0.01 µM.

As to `CCCc1n[nH]c2ccc(C(=O)N3CCC[C@@H]3c3ccc(Cl)cc3)cc12` [compound 12, [(R)-2-(4-Chloro-phenyl)-pyrrolidin-1-yl]-(3-propyl-1H-indazol-5-yl)-methanone], the IC50 (read-out: IC50) lay within 0.1 to 1 µM. On to `Cc1n[nH]c2ncc(C(=O)N3CCC[C@H]3c3ccc(Cl)cc3)cc12` [compound 13], for which the 50% inhibitory concentration (IC50) (IC50 [μM]) was below 0.01 µM. Same read-out and setting: the figure for `Cc1n[nH]c2ncc(C(=O)N3CCC[C@@H]3c3ccc(Cl)cc3)cc12` [compound 14, [(R)-2-(4-Chloro-phenyl)-pyrrolidin-1-yl]-(3-methyl-1H-pyrazolo[3,4-b]pyridin-5-yl)-methanone] is 0.1 to 1 µM. For `Cc1n[nH]c2ncc(C(=O)N3CCCCC3c3ccc(F)cc3)cc12` (stereo not drawn) [compound 15, [2-(4-Fluoro-phenyl)-piperidin-1-yl]-(3-methyl-1H-pyrazolo[3,4-b]pyridin-5-yl)-methanone], the IC50 (read-out: IC50) is 0.01 to 0.1 µM.
